{
  "source": "paper PMC6222871",
  "about": "“Suppression of Hepatitis C Virus Genome Replication and Particle Production by a Novel Diacylglycerol Acyltransferases Inhibitor” (Molecules : A Journal of Synthetic Chemistry and Natural …, 2018)",
  "key": {"[1]": {"system": "HCV genotype 2a (Huh7.5-J6/JFH1)", "assay": "microbe, parasite or virus in culture", "conditions": "for EC50: Hepatitis C virus", "source_text": "We previously synthesized and characterized twelve DGAT inhibitors with a different DGAT specificity. […] A922500, a commercially available DGAT-1-specific inhibitor was used as a positive control. In spite of a wealth of knowledge on an essential role of DGAT-1 in the HCV particle assembly and production, less attention has been paid to potential functions of DGATs in other steps of the viral life cycle. Therefore, we decided to examine effects of these twelve DGAT inhibitors on HCV particle production as well as RNA genome replication in parallel. For this purpose, we transfected Huh7.5 cells with in vitro-transcribed genotype 2a HCV RNAs (Huh7.5-J6/JFH1) and treated them with each DGAT inhibitor for 6 and 72 h at 10 μM. HCV genome replication as well as host GAPDH RNA levels was quantitated by a real-time RT-PCR analysis. For assessment of HCV particle production, we harvested and filtered the supernatant from Huh7.5-J6/JFH1 cells treated with DGAT inhibitors and incubated the supernatant with naïve huh7.5 cells for 72 h. Then, infectivity was measured by a real-time RT-PCR analysis.\nQuantitative real-time RT-PCR analysis to measure levels of HCV RNA and GAPDH was conducted as previously described. The cDNA synthesis and reverse transcription of miR-122 were performed by using Taqman quantitative RT-PCR (qRT-PCR) analysis. Taqmanq RT-PCR components including TaqMan miR122 probe, endogenous control U6 probe, TaqMan® MicroRNA reverse transcription Kit and TaqMan® universal master mix II were purchased from Thermo Fisher Scientific (Waltham, MA, USA)\nHuh7.5-J6/JFH-1 cells were seeded into 6-well plates at a density of 3 × 10^5 cells per well with DMEM containing 10% FBS. After 24 h, they are incubated with either DMSO, increasing concentrations of 10j for 3, 6, 12, 24, 48, and 72 h, or increasing concentrations of A922500 for 6, 12, 24, 48, and 72 h. Total RNAs were extracted from treated cells and virus-containing media were harvested at each time point. Naïve Huh7.5 cells were infected with these virus-containing media after concentration with centricons. Total RNAs were extracted from Huh7.5 cells infected with virus-containing media. qRT-PCR analysis was performed to measure effect of 10j on HCV replication and virus particle production."}, "JFH1-NS5A-GFP cells": {"system": "JFH1-NS5A-GFP cells", "assay": "NS5A-GFP and Oil Red O imaging in JFH1-NS5A-GFP cells", "format": "cell-based, hepatitis C virus", "conditions": "72 h, dose-dependent", "description": "Based on previous results, we noticed that EC50 values required for inhibition of the HCV genome replication by 10j were around 1–2 μM ranges (Figure 2 and Table 3). However, IC50 value required for inhibition of the enzymatic DGAT activities in vitro by 10j was reported to be higher than 5 μM (Table 2 and Figure 6E). Based on these observations, we hypothesized that inhibition of DGATs by 10j may not play a direct role in suppression of the viral genome replication. To test this hypothesis, we decided to study effects of 10j on DGAT and the viral genome replication in a simultaneous manner. […] Then, the viral NS3 protein and LDs were visualized by using an anti-NS3 antibody and BODIPY, respectively. […] Significant reduction of LD was only seen after treatment of 10j higher than 5 μM. In order to confirm this observation, we decided to utilize another HCV-positive cell—JFH1-NS5A-GFP cells—which were infected with infectious HCV genotype 2a particles with a visually tractable NS5A due to the presence of in-frame-fused GFP protein with NS5A. TGs of these cells were stained with ORO for visualization in parallel. […]\nImmunofluorescence analysis of Huh7.5-J6/JFH1 or Huh7.5-JFH1-5A-GFP cells in the presence of 10j was conducted as previously described. Fluorescence were examined and captured by Nikon confocal laser scanning microscopic system. LD content was quantified using the ImageJ program."}},
  "note": "Where two headings read alike, the source gives them in different places.",
  "data": [
    {"smiles": "O=C(NCc1ccco1)c1ccc2[nH]c(COc3ccc(C45CC6CC(CC(C6)C4)C5)cc3)nc2c1", "note": "[10j, 2-{[4-(adamant-1yl)phenoxy]methyl)-N-(furan-2-ylmethyl)-1H-benzo[d]imidazole-5-carboxamide]", "values": [
      {"measurement": "T1/2, time required for reducing the viral RNAs by half", "setting": "[1]; 8 μM, genotype 2a", "result": 35.8, "unit": "h"},
      {"measurement": "effect on HCV genome replication", "setting": "[1]; 10 μM, 72 h (Figure 1C)", "result": "able to block both viral RNA genome replication and particle production"},
      {"measurement": "EC50", "setting": "[1]; 3 h, read-out: EC50 on HCV genome replication", "result": "> 10000", "unit": "nM"},
      {"measurement": "EC50", "setting": "[1]; 6 h, read-out: EC50 on HCV genome replication", "result": "> 10000", "unit": "nM"},
      {"measurement": "EC50", "setting": "[1]; 12 h, read-out: EC50 on HCV genome replication", "result": 8500, "unit": "nM"},
      {"measurement": "EC50", "setting": "[1]; 24 h, read-out: EC50 on HCV genome replication", "result": 3000, "unit": "nM"},
      {"measurement": "EC50", "setting": "[1]; 48 h, read-out: EC50 on HCV genome replication", "result": 3600, "unit": "nM"},
      {"measurement": "EC50", "setting": "[1]; 72 h, read-out: EC50 on HCV genome replication", "result": 2700, "unit": "nM"},
      {"measurement": "EC50", "setting": "[1]; GETYPE2A, 72 h, read-out: EC50 HCV RNA, reporter-free infectious clone", "result": 1600, "unit": "nM"},
      {"measurement": "EC50", "setting": "[1]; GETYPE2A, read-out: EC50 values required for inhibition of the HCV genome replication (summary)", "result": "1000 to 2000", "unit": "nM"},
      {"measurement": "concentration at which reduction of NS5A-GFP expression starts", "setting": "JFH1-NS5A-GFP cells", "result": 5, "unit": "µM"}
    ]}
  ]
}
